Measured values taken from PubChem BioAssay (NCI).
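Results reflect a 48-hour exposure of cells in 96-well plates to compound at five concentrations. TGI denotes the concentration required for complete inhibition of growth.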 Peptide text beside a SMILES is read from it. * marks the point of attachment. X26 = Clc1c(Cl)c(Cl)c(O*)c(Cl)c1Cl; Boc = CC(C)(C)OC(=O)*; OBn = c1ccc(CO*)cc1; Bn = c1ccc(C*)cc1

How the values were obtained:
Assay in all cases: NCI tumour cell line growth inhibition, 48 h
[1] = test system: 786-0 renal
[2] = test system: HCC-2998 colon
[3] = test system: HOP-92 NSCLC
[4] = test system: K-562 leukemia
[5] = test system: MALME-3M melanoma
[6] = test system: OVCAR-3 ovarian
[7] = test system: OVCAR-4 ovarian
[8] = test system: OVCAR-8 ovarian
[9] = test system: SF-539 CNS
[10] = test system: TK-10 renal

| Structure (SMILES) | TGI [1] | TGI [2] | TGI [3] | TGI [4] | TGI [5] | TGI [6] | TGI [7] | TGI [8] | TGI [9] | TGI [10] |
| --- | --- | --- | --- | --- | --- | --- | --- | --- | --- | --- |
| CC[N+]1(C)CCC(O)(c2ccc(C)cc2)C(C(=O)c2ccc(C)cc2)C1 (stereo unspecified) | 34.6 µM | > 100 µM | 46.2 µM | 37.5 µM | 52.7 µM | 39.6 µM | 86.3 µM | > 100 µM | > 100 µM | 47.5 µM |
| CCN(CC)c1ccc(NC(=S)NN(C)C)cc1 | > 10 µM | > 10 µM | > 10 µM | > 10 µM | > 10 µM | > 10 µM | > 10 µM | > 10 µM | > 10 µM | > 10 µM |
| CCCCCCc1cc2cc(-c3csc(-c4ccc(OC)cc4)n3)c(=O)oc2cc1O | 18 µM | 31.5 µM | 16.2 µM | > 100 µM | – | – | 7.39 µM | – | 25.6 µM | 34.1 µM |
| CCCCN1C(=O)CC2[C@@H]3CCc4cc(OC)ccc4C3CC[C@]2(C)C1=O (stereo partly specified) | > 10 µM | > 10 µM | – | > 10 µM | > 10 µM | > 10 µM | > 10 µM | > 10 µM | > 10 µM | > 10 µM |
| N#Cc1nc(CCCN2C(=O)c3ccccc3C2=O)oc1N | > 100 µM | > 100 µM | – | > 100 µM | > 100 µM | > 100 µM | > 100 µM | > 100 µM | > 100 µM | > 100 µM |
| NCCN(CCN(C(=O)Nc1ccccc1)c1ccccc1)C(=O)Nc1ccccc1 | 55.4 µM | 44.3 µM | 44.2 µM | > 100 µM | 34.2 µM | – | – | 52.2 µM | – | 60.3 µM |
| Nc1nncc2[nH]cnc12 | > 100 µM | > 100 µM | > 100 µM | > 100 µM | – | > 100 µM | > 100 µM | > 79.8 µM | > 100 µM | > 100 µM |
| Clc1ccc(OCc2nnc(COc3ccc(OCc4nnc(COc5ccc(Cl)cc5Cl)o4)c(Cl)c3)o2)c(Cl)c1 | > 100 µM | 97.3 µM | 33.5 µM | 53.3 µM | > 100 µM | 61.7 µM | – | > 100 µM | – | > 100 µM |
| c1c(N2CCOCC2)ssc1=[N+]1CCOCC1 | > 100 µM | > 100 µM | > 100 µM | > 100 µM | > 100 µM | – | > 100 µM | > 100 µM | > 100 µM | > 100 µM |
| CC(C)CC(NC(=O)C(CCC(=O)OCc1ccccc1)NC(=O)OC(C)(C)C)C(=O)NC(COCc1ccccc1)C(=O)NC(Cc1ccccc1)C(=O)Oc1c(Cl)c(Cl)c(Cl)c(Cl)c1Cl (stereo unspecified) (Boc-E(OBn)LS(Bn)F-X26; configuration not given here) | 90.7 µM | – | 43.8 µM | – | 91.5 µM | – | > 100 µM | 65.5 µM | – | 72.1 µM |
| CCOc1snc(C(Cl)(Cl)Cl)c1Cl | > 100 µM | 63.3 µM | – | > 100 µM | 80.2 µM | 37.8 µM | > 100 µM | 94.4 µM | > 100 µM | > 100 µM |
| O=C1/C(=C/c2ccncc2)C(n2cccc2)c2c(Br)sc(Br)c21 (stereo unspecified) | 11.5 µM | 3.45 µM | 7.83 µM | 6.91 µM | 10.9 µM | 3.38 µM | – | 5.82 µM | 17.1 µM | 14.6 µM |
| CN(C)CCCNc1cc(O)c2c(c1O)C(=O)c1ccccc1C2=O | 21 µM | – | 29.6 µM | 21.6 µM | 50.2 µM | 23.5 µM | 25.4 µM | 30.5 µM | 26.7 µM | 22.1 µM |
| N#Cc1ccc(-c2nc(C#N)c(N)o2)cc1 | > 10 µM | > 10 µM | > 10 µM | > 10 µM | > 10 µM | – | > 10 µM | > 10 µM | > 10 µM | > 10 µM |
| CCOC(=O)/C=C(/C=C\COC1CCCCO1)c1ccccc1 (stereo unspecified) | 62.7 µM | > 100 µM | – | > 100 µM | > 100 µM | 80.8 µM | > 100 µM | 59.9 µM | – | > 100 µM |
| COc1cccc(N2C(=O)CS(=O)(=O)C2c2cccc(Oc3ccccc3)c2)c1 (stereo unspecified) | 44.4 µM | – | 68.5 µM | 19.5 µM | 69.8 µM | > 100 µM | > 100 µM | 77.2 µM | 38.4 µM | 47.4 µM |
| CC1(C)N=C(N)N=C(N)N1c1cccc(OCc2cccc(N)c2)c1 | > 100 µM | – | > 100 µM | > 100 µM | > 100 µM | > 100 µM | > 100 µM | > 100 µM | > 80.4 µM | > 100 µM |
| O=P(OCc1ccccc1)(OCc1ccccc1)C(O)/C=C/c1ccccc1 (stereo unspecified) | 39.5 µM | – | 57.2 µM | > 100 µM | 38.2 µM | 43.6 µM | 56.1 µM | 55.9 µM | – | – |
| CC(=O)OC1CC2(O)C(CCC3(C)C(c4ccc(=O)oc4)CCC32O)C2(C)C1=CC(O)C1OC12 (stereo unspecified) | – | 0.436 µM | 0.157 µM | 0.381 µM | 0.13 µM | 0.0697 µM | 0.121 µM | 0.258 µM | 0.116 µM | – |
| CC(C)=CCC12Cc3ccc(O)cc3C(C(C)CN1)C2C (stereo unspecified) | > 100 µM | 48.2 µM | > 100 µM | > 100 µM | > 100 µM | – | > 100 µM | > 100 µM | > 100 µM | > 100 µM |
| C[C@H](c1ccccc1)N1C(=O)[C@@H](OCc2ccccc2)[C@H]1[C@H](COC(=O)COCc1ccccc1)OCc1ccccc1 | > 100 µM | – | > 100 µM | > 100 µM | 76.7 µM | > 100 µM | – | – | – | > 100 µM |
| COC(=O)C1=C(C(=O)OC)SC(=C2SC3=C(SC(=C4SCCS4)S3)S2)S1 | > 100 µM | – | > 100 µM | > 100 µM | > 100 µM | – | – | > 100 µM | – | > 100 µM |
| N#Cc1nc(C2CCC(=O)O2)oc1N (stereo unspecified) | > 100 µM | – | – | > 100 µM | > 100 µM | > 100 µM | – | > 100 µM | > 100 µM | > 100 µM |
| CC(=O)N(C)c1ccc(Nc2ccnc3ccc4nn(C)nc4c23)cc1 | > 100 µM | – | – | – | 39.6 µM | 50 µM | > 100 µM | > 100 µM | 46.4 µM | 70.2 µM |
